Numbers after ± are expanded uncertainties.

For the series the following is noted: Liquid; Visual observation in an unstirred cell.
As to `CCC=C(C)C` [2-methyl-2-pentene], the Critical temperature stood at 509.3 ± 0.5 K.

For `CCCCCC(C)N` (centres undefined) [1-methylhexylamine], the Critical temperature is 598 ± 2.1 K.

Turning to `C=CC(C)(C)C` [3,3-dimethyl-1-butene], the Critical temperature is given as 477.4 ± 0.9 K.

Turning to `CCCCC1CCCCC1` [butylcyclohexane], the Critical temperature came out at 653.1 ± 0.4 K.

For the compound `CCCCCCNC` [1-hexanamine, N-methyl-], the Critical temperature was 592 ± 1 K.

Regarding `CC(C)N` [2-propanamine], the Critical temperature worked out at 472.5 ± 0.4 K.

Regarding `CC(C)C1CCCCC1` [(1-methylethyl)cyclohexane], the Critical temperature turned out to be 632.2 ± 0.4 K.

Take `CCC1CCCCC1` [ethylcyclohexane]: the Critical temperature was found to be 606.9 ± 0.4 K.

As to `NC1CCCCC1` [cyclohexylamine], the Critical temperature turned out to be 626.8 ± 0.9 K.

For `CCCCC=C(C)C` [2-methyl-2-heptene], the Critical temperature stood at 568.9 ± 1.1 K.

As to `C=CCC(C)(C)C` [4,4-dimethyl-1-pentene], the Critical temperature was 516 ± 4 K.

Turning to `CC/C=C/CC` [(E)-3-hexene], the Critical temperature amounted to 507.4 ± 2 K.

As for `CCCCNCCCC` [dibutylamine], the Critical temperature came out at 607.5 ± 1.1 K.

Turning to `CC/C=C/CCC` [3-heptene, (E)-], the Critical temperature is reported as 538.6 ± 0.7 K.

As to `C/C=C\CCCC` [2-heptene, (Z)-], the Critical temperature turned out to be 548.5 ± 0.6 K.

As to `CCCCCCN` [1-hexanamine], the Critical temperature is 592.3 ± 0.7 K.

Regarding `CC(C)(C)C1CCCCC1` [1,1-dimethylethylcyclohexane], the Critical temperature turned out to be 652 ± 0.4 K.

On to `C=CCC(C)C` [4-methyl-1-pentene], for which the Critical temperature stood at 493.1 ± 0.5 K.

For `C=CCCC(C)C` [5-methyl-1-hexene], the Critical temperature was 528.7 ± 0.4 K.

With `C=C(C)C(C)C` [2,3-dimethyl-1-butene], the Critical temperature turned out to be 497.7 ± 0.9 K.

For `C1CCCCCCC1` [cyclooctane], the Critical temperature was found to be 647.5 ± 0.4 K.

As to `CCCNCCC` [dipropylamine], the Critical temperature is reported as 555.8 ± 1.1 K.

Consider `C/C=C\C(C)C` [(Z)-4-methyl-2-pentene], for which the Critical temperature is on record as 496.3 ± 0.7 K.

As for `C=C(C)CCCCC` [2-methyl-1-heptene], the Critical temperature came out at 567.5 ± 0.9 K.

For `C=C(C)CCCC` [2-methyl-1-hexene], the Critical temperature is 541.8 ± 1.1 K.

For `CC/C=C\CC` [(Z)-3-hexene], the Critical temperature amounted to 510.2 ± 1.4 K.

For `C/C=C/CCC` [(E)-2-hexene], the Critical temperature was found to be 509 ± 0.7 K.

Consider `C/C=C/CCCCC` [(E)-2-octene], for which the Critical temperature was 569.8 ± 0.4 K.

As to `C1CCCCC1` [cyclohexane], the Critical temperature is reported as 553.6 ± 1.1 K.

As to `CCC/C=C/CCC` [(E)-4-octene], the Critical temperature was determined as 566.3 ± 1.1 K.

In the case of `C=C(C)CC` [2-methyl-1-butene], the Critical temperature is recorded as 467 ± 0.5 K.

Take `C=C(C)CCC` [2-methyl-1-pentene]: the Critical temperature stood at 521 ± 0.4 K.

`C=C(C)C(C)CC` (centres undefined) [2,3-dimethyl-1-pentene]: the Critical temperature is recorded as 533.6 ± 4.3 K.

Consider `CC(C)CC1CCCCC1` [2-methylpropylcyclohexane], for which the Critical temperature is recorded as 642.1 ± 0.6 K.

For `CC(C)=C(C)C` [2,3-dimethyl-2-butene], the Critical temperature turned out to be 521 ± 0.9 K.

Turning to `C/C=C/CCCC` [2-heptene, (E)-], the Critical temperature was found to be 542.8 ± 0.4 K.

Turning to `C/C=C\CCC` [(Z)-2-hexene], the Critical temperature was determined as 513.4 ± 0.9 K.

As to `CCCC1CCCCC1` [1-cyclohexylpropane], the Critical temperature is reported as 630.8 ± 0.9 K.

As for `CCCN` [propan-1-amine], the Critical temperature stood at 499.2 ± 0.4 K.
